Measurements taken from PMC10743451, “Addressing the Binding Mechanism of the Meprin and TRAF-C Homology Domain of the Speckle-Type POZ Protein Using Protein Engineering” (International Journal of Molecular Sciences, 2023).

Tested on: SPOP MATH domain
Assay: Linear free energy relationship (LFER) analysis of binding to SPOP MATH wildtype and mutant variants
Details: LFER over MATH wildtype and mutant variants
Excerpt: A powerful method used to address the mechanism of binding between ligands is to study the effect of structural perturbation on the transition and ground states. This approach, classically denoted as Leffler or Linear Free Energy Relationship (LFER) analysis, aims at analyzing the correlation of the change in activation free energy to the change in equilibrium free energy; LFER analysis has been used in organic chemistry, protein folding, enzymology, and protein–protein interaction studies to decipher the position of the transition state of a reaction along the reaction coordinates. The analysis of the dependences of the microscopic association and dissociation rate constants over the equilibrium constant of each MATH variant to Puc and MacroH2A are reported in Figure 5.
Figure 5 Linear free energy relationship for the binding of MATH wildtype and mutant variants to the peptides Puc (panels (A,B)) and MacroH2A (panels (C,D)). Panels (A,C) represent the dependences of the microscopic association rate constant kon on the equilibrium dissociation constant. Panels (B,D) represent the dependences of the microscopic dissociation rate constant koff on the equilibrium dissociation constant. The blue and red dots represent the dependences of kon or koff on the equilibrium dissociation constant (KD), respectively.

| Sequence | slope of log koff versus log KD | slope of log kon vs. log KD |
| --- | --- | --- |
| DEVTSTTSSS [Puc] | 0.36 ± 0.09 | −0.64 ± 0.09 |
| KAASADSTTEGTPAD [MacroH2A] | 0.02 ± 0.11 | −0.98 ± 0.11 |
